Results taken from patent US8372955B2, “Purified antibody to the extracellular domain of NKp44L” (Assistance Publique Hopitaux de Paris, priority 2003, dated 2013).

Assays:
[1] = system: purified CD4+ T cells; experiment: NK lysis sensitivity of treated CD4+ T cells, 4-h 51Cr-release assay with activated autologous purified NK cells; format: cell-based, human; settings: 6-mers peptide, preliminary experiment
Method: NK lines were generated from PBMC, and then purified using the StemSep cell separation system and the NK cell enrichment antibody cocktail (StemCell technologies). NK purified cells were cultured in MyeloCult H5100 medium (StemCell technologies) supplemented with 100 units rhIL-2 (Boheringer). The purity of these preparations was evaluated by flow cytometry after staining with anti-CD3 (BD), anti-CD56 (BD), anti-NKp44, and anti-NKp46 mAbs.
The cytololytic activity was assayed in 4-h ^51Cr-release assay as previously described. Briefly, the target cells were labeled for 2-h at 37° C. with 100 μCi per 10^6 cells Na^51Cr (Amersham), and washed twice with culture medium. The target cells were then distributed in round-bottomed 96-well microtiter plates (4×10^3 cells per well), and the effector cells were added at several E/T ratio. The plates were incubated 4-h at 37° C. The supernatant were then collected and ^51Cr-release was measured in a gamma counted. In experiments in which Abs were included, these were added to final concentration of 20 μg/ml. The relative specific ^51Cr-release was calculated as previously described. Values for spontaneous ^51Cr-release, which are deducted in the calculation, were between 10 and 20% of the total incorporated radioactivity. The results are presented after subtraction of the nonspecific lysis obtained with control targets. […]

[2] = system: purified CD4+ T cells; format: cell-based, human; settings: 6-mers peptide, preliminary experiment

**Q.** What does the source list for “H-SWSNKS-OH [NH2-SWSNKS—COOH, NH2-SWSNKS—COOH (SEQ ID NO: 7)]”?
**A.** NK cytotoxic activity [1]: any increased; Cell surface expression of NKp44L [2]: any increased
